From patent US7629294B2, “Pyrazolopyrimidines” (Bayer CropScience LP, priority 2004, dated 2009)

assay: physchem; settings: logP

Point of comparison: `COC(=O)c1cnn2c(N[C@H](C)C(C)C)c(-c3ccc(C#N)cc3Cl)c(Cl)nc12` (single isomer, unassigned) [drawing 52 atropisomer A], chromatographic logP 3.64. Against it:
- C[C@@H](Nc1c(-c2ccc(F)cc2Cl)c(Cl)nc2c(C(N)=O)cnn12)C(C)(C)C — higher, 3.88
- C[C@@H](Nc1c(-c2ccc(F)cc2Cl)c(Cl)nc2c(C(=O)NO)cnn12)C(C)(C)C — within 0.2 log units, 3.51
- C[C@@H](Nc1c(-c2ccc(F)cc2Cl)c(Cl)nc2c(C(N)=NO)cnn12)C(C)(C)C — lower, 2.47
- CC(C)[C@@H](C)Nc1c(-c2ccc(C#N)cc2Cl)c(Cl)nc2c(C(=O)O)cnn12 (single isomer, unassigned) [Example XIX] — lower, 2.9
- C[C@H](Nc1c(-c2ccc(C#N)cc2Cl)c(Cl)nc2c(C(=O)O)cnn12)C(F)(F)F (single isomer, unassigned) [Example XXII] — lower, 2.63
- CC(C)[C@@H](C)Nc1c(-c2ccc(C(N)=O)cc2Cl)c(Cl)nc2c(C(=O)O)cnn12 (single isomer, unassigned) [Example XX] — lower, 1.96
- COC(=O)c1cnn2c(N[C@@H](C)C(C)C)c(-c3ccc(C#N)cc3Cl)c(Cl)nc12 (single isomer, unassigned) [drawing 53 atropisomer A] — within 0.2 log units, 3.72
- COC(=O)c1cnn2c(N[C@@H](C)C(F)(F)F)c(-c3ccc(C#N)cc3Cl)c(Cl)nc12 (single isomer, unassigned) [drawing 54 atropisomer A] — lower, 3.32
- CC(Nc1c(-c2ccc(F)cc2Cl)c(Cl)nc2c(Br)cnn12)C(C)(C)C (stereo not shown) [3-bromo-5-chloro-6-(2-chloro-4-fluorophenyl)-N-(1,2,2-trimethylpropyl)pyrazolo[1,5-a]pyrimidin-7-amine] — higher, 5.78
- N#Cc1ccc(Br)c(Cl)c1 [3-chloro-4-bromobenzonitrile] — lower, 2.82
- C[C@@H](Nc1c(-c2ccc(F)cc2Cl)c(Cl)nc2c(C3=NOCCN3)cnn12)C(C)(C)C [Example IX] — lower, 3.23
- C[C@@H](Nc1c(-c2ccc(F)cc2Cl)c(Cl)nc2c(C3=NOCCO3)cnn12)C(C)(C)C [Example VIII] — higher, 4.43
- C[C@@H](Nc1c(-c2ccc(F)cc2Cl)c(Cl)nc2c(-c3ncco3)cnn12)C(C)(C)C [Example VII] — higher, 4.72
- C[C@@H](Nc1c(-c2ccc(F)cc2Cl)c(Cl)nc2c(-c3nsc(=O)o3)cnn12)C(C)(C)C [Example VI] — higher, 5.38
- CCC(C)c1c(Cl)nc2c(C(=O)O)cnn2c1N[C@@H](C)C(F)(F)F (stereo partly drawn) [Example XII, 5-chloro-6-(sec-butyl)-7-[(S)-3-trifluoroisopropylamino]pyrazolo[1,5-a]pyrimidine-3-carboxylic acid] — lower, 2.88
- CCC(C)c1c(Cl)nc2c(C(=O)O)cnn2c1N[C@@H](C)C(C)C (stereo partly drawn) [Example XIV, 5-chloro-6-(sec-butyl)-7-[(S)-3-methyl-2-butylamino]pyrazolo[1,5-a]pyrimidine-3-carboxylic acid] — within 0.2 log units, 3.52
- CC(C)[C@@H](C)Nc1c(C2CCCC2)c(Cl)nc2c(C(=O)O)cnn12 [Example XV, 5-chloro-6-cyclopentyl-7-[(R)-3-methyl-2-butylamino]pyrazolo[1,5-a]pyrimidine-3-carboxylic acid] — within 0.2 log units, 3.7
- C[C@H](Nc1c(C2CCCC2)c(Cl)nc2c(C(=O)O)cnn12)C(F)(F)F [Example XVII, 5-chloro-6-cyclopentyl-7-[(S)-3-trifluoroisopropylamino]pyrazolo[1,5-a]pyrimidine-3-carboxylic acid] — lower, 3.06
- CC(C)[C@H](C)Nc1c(C2CCCC2)c(Cl)nc2c(C(=O)O)cnn12 [Example XVI] — within 0.2 log units, 3.7

same assay, conditions: logPs

Point of comparison: `CC1CCN(c2c(-c3ccc(F)cc3Cl)c(Cl)nc3c(S(=O)(=O)O)cnn23)CC1` [Example III, 5-chloro-6-(2-chloro-4-fluorophenyl)-7-(4-methylpiperidin-1-yl)pyrazolo[2,3-a]pyrimidine-3-sulphonic acid], chromatographic logP 2.48. Against it:
- Cc1ccsc1-c1c(Cl)nc2c(C(N)=O)cnn2c1NC(C)C(C)C (stereo not drawn) [5-chloro-7-(1,2-dimethylpropylamino)-6-(3-methylthiophen-2-yl)pyrazolo[1,5-α]pyrimidine-3-carboxamide] — higher, 3.5
- CSc1cnn2c(N3CCC(C)CC3)c(-c3ccc(F)cc3Cl)c(Cl)nc12 [Example I, 5-chloro-6-(2-chloro-4-fluorophenyl)-7-(4-methylpiperidin-1-yl)-3-methylmercapto-pyrazolo [2,3-a]pyrimidine] — higher, 5.73
- CC1CCN(c2c(-c3ccc(F)cc3Cl)c(Cl)nc3c(S(C)(=O)=O)cnn23)CC1 [Example II, 5-chloro-6-(2-chloro-4-fluorophenyl)-7-(4-methylpiperidin-1-yl)-3-methylsulphonyl-pyrazolo[2,3-a]pyrimidine] — higher, 4.2
- CC(C)NC(=O)c1cnn2c(N[C@H](C)C(C)C)c(-c3c(F)cccc3Cl)c(Cl)nc12 [Example IV, 5-chloro-6-(2-chloro-6-fluorophenyl)-7-{[(1R)-1,2-dimethylpropyl]amino}-N-isopropylpyrazolo[1,5-a]pyrimidine-3-carboxamide] — higher, 4.72
- CC(C)[C@@H](C)Nc1c(-c2c(F)cccc2Cl)c(Cl)nc2c(C(=O)O)cnn12 [Example V, 5-chloro-6-(2-chloro-6-fluorophenyl)-7-{[(1R)-1,2-dimethylpropyl]amino}pyrazolo[1,5-a]pyrimidine-3-carboxylic acid] — higher, 3.24
- CC(C)C(C)Nc1c(-c2ccc(F)cc2Cl)c(Cl)nc2c(-c3nnc(N)s3)cnn12 (stereo not shown) [Example XXIX] — higher, 3.57
- COc1nc2c(C(=O)O)cnn2c(NC(C)C(C)C)c1-c1sccc1C (stereo not drawn) [Example XXV, 7-(1,2-dimethylpropylamino)-5-methoxy-6-(3-methylthiophen-2-yl)pyrazolo[1,5-α]pyrimidine-3-carboxylic acid] — higher, 3.65
- Cc1ccsc1-c1c(Cl)nc2c(-c3nsc(=O)o3)cnn2c1NC(C)C(C)C (stereo not drawn) [Example XXVI, 5-[5-Chloro-7-(1,2-dimethylpropylamino)-6-(3-methylthiophen-2-yl)pyrazolo[1,5-α]pyrimidin-3-yl]-[1,3,4]oxathiazol-2-one] — higher, 5
- Cc1ccsc1-c1c(Cl)nc2c(-c3ncco3)cnn2c1NC(C)C(C)C (stereo not drawn) [Example XXVII, [5-Chloro-6-(3-methylthiophen-2-yl)-3-oxazol-2-ylpyrazolo[1,5-α]pyrimidin-7-yl](1,2-dimethyl-propyl)amine] — higher, 4.3
- Cc1nnc(-c2cnn3c(O)c(-c4ccc(F)cc4Cl)c(O)nc23)o1 [Example XXX, 6-(2-Chloro-4-fluorophenyl)-3-(5-methyl-[1,3,4]oxadiazol-2-yl)pyrazolo[1,5-a]pyrimidine-5,7-diol] — lower, 0.67
- Cc1nnc(-c2cnn3c(O)c(-c4ccc(F)cc4Cl)c(O)nc23)[nH]1 [Example XXXI, 6-(2-chloro-4-fluorophenyl)-3-(5-methyl-[1,3,4]triazol-2-yl)pyrazolo[1,5-a]pyrimidine-5,7-diol] — lower, 0.51
- Oc1nc2c(-c3ccccn3)cnn2c(O)c1-c1ccc(F)cc1Cl [Example XXXII, 6-(2-chloro-4-fluorophenyl)-3-pyridin-2-ylpyrazolo[1,5-a]pyrimidine-5,7-diol] — lower, 0.91
- Cc1nnc(-c2cnn3c(NC(C)C(C)C)c(-c4ccc(F)cc4Cl)c(Cl)nc23)o1 (stereo not shown) [Example XXXVI] — higher, 3.94
